Measurements taken from patent publication US5609875A, “Skin whitening composition” (Fischer Pharmaceuticals Ltd., priority 1994, dated 1997).

Tested on: tyrosinase
Assay: In vitro tyrosinase inhibitory activity, colorimeter comparison at 475 nm
Format: biochemical
From the text: Test in vitro on the effect of glycolic acid and glycyrrhiza dry extract on tyrosinase inhibitory activity has been carried out based on the Methodology of Maruzene Pharmaceuticals. The anti-tyrosinase activity was investigated by colorimeter comparison at 475 nm and calculated as percentage of the inhibitory activities. (Attached are the results).

% Tyrosinase Inhibition Test 1 (Glycolic acid 0.42 mg/5 ml): 4.86% | % Tyrosinase Inhibition Test 2 (Glycolic acid 0.42 mg/5 ml): 9.12% | % Tyrosinase Inhibition Test 1 (Glycolic acid 0.805 mg/5 ml): 5.64% | % Tyrosinase Inhibition Test 2 (Glycolic acid 0.805 mg/5 ml): 16.11% | % Tyrosinase Inhibition Test 1 (Glycolic acid 1.61 mg/5 ml): 7.60% | % Tyrosinase Inhibition Test 2 (Glycolic acid 1.61 mg/5 ml): 21.32% | % Tyrosinase Inhibition Test 1 (Glycolic acid 7.21 mg/5 ml): 10.74% | % Tyrosinase Inhibition Test 2 (Glycolic acid 7.21 mg/5 ml): 27.81%
Compound: O=C(O)CO [Glycolic acid]
